ChEMBL document CHEMBL3507680, “University of Dundee, Gates Library screen for HepG2 cell viability”

Test: Human HepG2 cell viability assay in 384 well format
Type: toxicity, cell-based
Design: dose 125 nL, time 70.5 hour; cytotoxicity at 70.5 h: concentration not given beside the values
Details: HepG2 cells, read-out: Inhibition

Row | Compound | cytotoxicity at 70.5 h
1 | c1ccc(COCC2CN(Cc3ccsc3)Cc3nccn3C2)nc1 (stereo not given) | -7.86%
2 | CS(=O)(=O)NCc1ncn2c1CN(C(=O)C1CCCCC1)CCC2 | -4.09%
3 | CS(=O)(=O)NCc1ncn2c1CN(CCN1CCCC1)CCC2 | -6.23%
4 | Cc1ccc(NC(=O)N2CC(C(=O)NC(C)C)C3(CCOCC3)C2)cc1 (stereo not given) | -6.28%
5 | Cc1ccc(C(=O)N2C[C@@H]3OCCN(C(C)C)[C@@H]3C2)cn1 | -11.3%
6 | CC(C)NC(=O)C1CN(C(=O)COc2ccccc2)CC12CCOCC2 (stereo not given) | -9.68%
7 | CN(C)C(=O)n1c(C(=O)NC(C)(C)CO)cc2c1c1ccccc1n2C | -6.99%
8 | CC(C)NC(=O)C1CN(C(=O)Nc2ccc(F)cc2)CC12CCOCC2 (stereo not given) | -6.35%
9 | CC(C)NC(=O)C1CN(C(=O)Nc2cccc(F)c2)CC12CCOCC2 (stereo not given) | -6.98%
10 | O=C(c1ccnnc1)N1CCC2(CC1)CN(c1ccccn1)CCO2 | -10.9%
11 | CC(C)N1CCO[C@H]2CN(C(=O)c3ccncc3)C[C@H]21 | 11.9%
12 | CCC1=N[C@@]2(CC[C@@H]3CN(C(=O)NCc4cccc(F)c4)C[C@@H]32)C(=O)N1 | -5.99%
13 | O=C(N1CCOCC1)N1CCC2(CC1)CN(c1ccccn1)CCO2 | -6.33%
14 | COCCN1CCOCC12CCN(C(=O)c1c[nH]c3ccccc13)CC2 | -13.9%
15 | CC(=O)N1CCC2(CCN(C(=O)c3cccc(C(F)(F)F)c3)CC2)C1 | 7.98%
16 | O=C(NC1CCC1)C1=NOC2(CCN(Cc3ccco3)C2)C1 (stereo not given) | 6.54%
17 | C=C(C)COc1cccc(CNC(COC)c2ccnn2C)c1 (stereo not given) | 2.53%
18 | O=C1CCC2(CCN(CC[C@H](O)c3ccccc3)CC2)CN1CCO | 1.6%
19 | COc1ccc2c(c1)OCC(Cc1cnccc1N)C2 (stereo not given) | -3.68%
20 | Cc1cc(C2CCCN2C(=O)CN2C(=O)OC(C)(C)C2=O)on1 (stereo not given) | -2.6%
21 | CCCS(=O)(=O)N1CCC2(CCCN(Cc3cccc(F)c3F)C2=O)C1 (stereo not given) | -7.34%
22 | COCc1cn(C2CCN(CCC(C)c3ccccc3)CC2)nn1 (stereo not given) | -12.1%
23 | Cc1cc(C)n(CC(C)NC(=O)c2cc(C(C)C)on2)n1 (stereo not given) | -4.49%
24 | Cc1cc2nc(C(C)C)cc(NCCc3ccncc3)n2n1 | -13.2%
25 | CCNC(=O)[C@@H]1C[C@@H](NC(=O)c2ccsc2)CN1CCCSC | -3.62%
26 | CCn1ncc2c1CN(C(=O)c1cscn1)CC2COC (stereo not given) | -7.98%
27 | CN(C)C(=O)CN1C[C@H]2CN(Cc3cccc(F)c3)C(=O)[C@H]2C1 | -5.27%
28 | O=C(c1cccnc1)N1C[C@H]2CN(Cc3cccc(F)c3)C(=O)[C@H]2C1 | -3.89%

Row | Compound | cytotoxicity at 70.5 h
29 | Cc1ccc(CN2CCC3(CCN(c4cnn(C)c4)C3=O)C2)s1 (stereo not given) | 13.4%
30 | COc1ccc(CN2C[C@@H]3OCCN(C)[C@@H]3C2)cc1 | -4.77%
31 | Cn1cc(N2CCC3(CCCN(Cc4ccc(F)cc4)C3)C2=O)cn1 (stereo not given) | -12.2%
32 | O=C(c1ccccn1)N1C[C@H]2CCC[C@@]2(COCC2CCOCC2)C1 | -10.8%
33 | COc1cc(N2CC[C@@H](O)[C@@H]2Cc2cccnc2)ncn1 | -8.63%
34 | O=C1[C@H]2CN(Cc3ccc(F)cc3)C[C@H]2CN1c1ccsc1 | -13.2%
35 | O=C(c1ccno1)N1CC[C@@H]2O[C@H](COCCN3CCCC3)CC[C@@H]21 | 9.33%
36 | COc1ccc(CN2CCC3(CCCN(c4ncc(F)cn4)C3)C2)cc1 (stereo not given) | 50.3%
37 | COc1cc(N2C[C@H]3CCC[C@@H](CN(C)C4CC4)[C@H]3C2)ncn1 | -1.7%
38 | COCCNC(=O)[C@@]12CCO[C@@H]1CCN(Cc1ccc(OC)cc1)C2 | -5.1%
39 | Cc1ccc(C(=O)N2CCC3(CC2)CN(c2ccccn2)CCO3)cc1 | -8.31%
40 | COCCN1CCOCC12CCN(C(=O)c1ccoc1)CC2 | -4.83%
41 | Cc1occc1C(=O)N1C[C@@H]2OCCN(C(C)C)[C@@H]2C1 | 5.55%
42 | Cc1oncc1C(=O)N1CCOCC2(CCN(c3ccccn3)C2)C1 (stereo not given) | -3.11%
43 | Cc1ccc(N2CCO[C@H]3CN(Cc4ccc(F)cc4)C[C@H]32)nn1 | -7.45%
44 | Fc1ccc(CN2C[C@@H]3OCCN(CC4CCCO4)[C@@H]3C2)cc1 (stereo not given in full) | 11%
45 | c1cc(COC[C@]23COC[C@H]2CN(Cc2ccsc2)C3)ccn1 | 7.32%
46 | COc1cccc(CN2C[C@@H]3COC[C@]3(COCc3ccccn3)C2)c1 | 2.25%
47 | Fc1cnc(N2CCCC3(CCN(Cc4ccco4)C3)C2)nc1 (stereo not given) | 10.4%
48 | Fc1ccc(CN2Cc3nccn3CC(CN3CCOCC3)C2)cc1 (stereo not given) | -8.01%
49 | Cc1ccc(CN2Cc3nccn3CC(CN(C)C)C2)s1 (stereo not given) | -7.65%
50 | Cc1ccc2c(n1)N(Cc1cccnc1)CCN(C(=O)C1CC1)C2 | 11.2%
51 | CN(C)CC1CN(Cc2ccc(F)cc2)Cc2nccn2C1 (stereo not given) | -4.49%
52 | CC(C)N1CCO[C@H]2CN(C(=O)c3ccccn3)C[C@H]21 | -7.58%
53 | COCCN(C)C1COC2(CCN(Cc3cccc(F)c3)CC2)C1 (stereo not given) | 10.1%
54 | c1cc(CN2C[C@@H]3OCCN(CC4CCCO4)[C@@H]3C2)ccn1 (stereo not given in full) | 8.75%
55 | CN(Cc1ccncc1)C1COC2(CCN(Cc3ccco3)CC2)C1 (stereo not given) | 9.94%
